For the assay, the target named is T1, human apelin receptor (Homo sapiens, UniProt P35414).
T1 construct: expressed in transfected cells
T1 sequence (P35414 1-380): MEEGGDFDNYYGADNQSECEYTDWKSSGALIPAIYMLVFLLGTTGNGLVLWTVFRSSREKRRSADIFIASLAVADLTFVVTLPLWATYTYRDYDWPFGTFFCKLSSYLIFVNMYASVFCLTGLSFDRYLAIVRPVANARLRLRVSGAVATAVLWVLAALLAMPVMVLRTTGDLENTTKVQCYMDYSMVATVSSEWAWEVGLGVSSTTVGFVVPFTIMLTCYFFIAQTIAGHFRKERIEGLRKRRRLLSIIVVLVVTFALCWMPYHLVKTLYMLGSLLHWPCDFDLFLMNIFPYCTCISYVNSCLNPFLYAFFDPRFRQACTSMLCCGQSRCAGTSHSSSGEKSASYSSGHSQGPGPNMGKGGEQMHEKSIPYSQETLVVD
The experiment in a line: Determination of agonism on the human apelin receptor by a calcium fluorescence assay (FLIPR). The format is cell-based. Particulars: HEK293 cells stably transfected with human apelin receptor and Giaq protein, Fluo-4 calcium fluorescence, read-out: EC50 (APJ agonism). The method, boiled down:
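HEK293 cells stably co-expressing human apelin receptor and promiscuous Giaq, loaded 1 h at 37 °C with Fluo-4 (4 μM) in probenecid-containing Hepes buffer, pH 7.4. Compounds, at least 7 concentrations in triplicate, added in FLIPR Tetra; peak calcium fluorescence normalized to 1 μM apelin-13 as 100% to derive EC50.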

As a reminder, the EC50 is the concentration that produces a half-maximal response. With `CCC(CC)n1c(Cc2cccs2)nc2cc(C(=O)N[C@@H](CC3CCCCC3)[C@@H](O)CC(=O)O)ccc21` [Example 79, (3S,4S)-5-Cyclohexyl-4-{[1-(1-ethyl-propyl)-2-thiophen-2-ylmethyl-1H-benzoimidazole-5-carbonyl]-amino}-3-hydroxy-pentanoic acid], the EC50 came out at 80 nM.

For the compound `CCCCC(CC(=O)O)NC(=O)c1ccc2c(c1)nc(Cc1cccs1)n2C(CC)CC` (single isomer, unassigned) [Example 452], the EC50 came out at 49 nM. Then `CC(C)C[C@H](NC(=O)c1ccc2c(c1)nc(Cc1cccs1)n2C1CCCCCC1)C(=O)O` [Example 111, (S)-2-[(1-Cycloheptyl-2-thiophen-2-ylmethyl-1H-benzoimidazole-5-carbonyl)-amino]-4-methyl-pentanoic acid], with 579 nM; and `CCC(CC)n1c(Cc2cccs2)nc2cc(C(=O)N[C@@H](CC(C)C)C(=O)NCCCCN(C)C)ccc21` [Example 245, 1-(1-Ethyl-propyl)-2-thiophen-2-ylmethyl-1H-benzoimidazole-5-carboxylic acid [(S)-1-(4-dimethylamino-butylcarbamoyl)-3-methyl-butyl]-amide], with 291 nM. As to `CCCCC(CC(=O)O)NC(=O)c1ccc2c(c1)nc(Cc1cccs1)n2C(CC)CC` (single isomer, unassigned) [Example 453], the EC50 came to 781 nM.

With `CCc1ccc(CC(NC(=O)c2ccc3c(c2)nc(Cc2cccs2)n3C(CC)CC)C(=O)O)cc1` (centres unmarked) [Example 30, 3-(4-Ethyl-phenyl)-2-{[1-(1-ethyl-propyl)-2-thiophen-2-ylmethyl-1H-benzoimidazole-5-carbonyl]-amino}-propionic acid], the EC50 came out at 2200 nM.

As for `CCC(CC)n1c(Cc2cccs2)nc2cc(C(=O)N[C@@H](CC(C)C)C(=O)NC3COC4(CCCCC4)C3)ccc21` (stereo partly drawn) [Example 397, 1-(1-Ethyl-propyl)-2-thiophen-2-ylmethyl-1H-benzoimidazole-5-carboxylic acid [(S)-3-methyl-1-(1-oxa-spiro[4.5]dec-3-ylcarbamoyl)-butyl]-amide], the EC50 came out at 8740 nM.

On to `C[C@@H]1CCCC[C@H]1n1c(Cc2cccs2)nc2cc(C(=O)NC(CC3CCC(C)(C)CC3)C(=O)O)ccc21` (single isomer, unassigned) [Example 446], for which the EC50 turned out to be 2140 nM.

With `CCC(CC)n1c(CC2CCCC2)nc2cc(C(=O)N[C@@H](CC3CCCCC3)C(=O)O)ccc21` [Example 3, (S)-3-Cyclohexyl-2-{[2-cyclopentylmethyl-1-(1-ethyl-propyl)-1H-benzoimidazole-5-carbonyl]-amino}-propionic acid], the EC50 was 1200 nM. Then `CCC(C)n1c(CC2CCCC2)nc2cc(C(=O)N[C@@H](CC(C)C)C(=O)O)ccc21` (stereo partly drawn) [Example 149, (S)-2-[(1-sec-Butyl-2-cyclopentylmethyl-1H-benzoimidazole-5-carbonyl)-amino]-4-methyl-pentanoic acid], with 27000 nM; and `CCC(CC)n1c(Cc2cccs2)nc2cc(C(=O)N[C@@H](CC(C)C)C(=O)N3CCN(Cc4ccc5c(c4)OCO5)CC3)ccc21` [Example 311, 1-(1-Ethyl-propyl)-2-thiophen-2-ylmethyl-1H-benzoimidazole-5-carboxylic acid [(S)-1-(4-benzo[1,3]dioxol-5-ylmethyl-piperazine-1-carbonyl)-3-methyl-butyl]-amide], with 21200 nM; and `CCC(CC)n1c(Cc2cccs2)nc2cc(C(=O)N[C@@H](CC(C)C)C(=O)NCc3ccco3)ccc21` [Example 221, 1-(1-Ethyl-propyl)-2-thiophen-2-ylmethyl-1H-benzoimidazole-5-carboxylic acid {(S)-1-[(furan-2-ylmethyl)-carbamoyl]-3-methyl-butyl}-amide], with 1830 nM. Then `CC(C)C[C@@H](CC(=O)O)NC(=O)c1ccc2c(c1)nc(Cc1cccs1)n2C1CCCCC1C` (single isomer, unassigned) [Example 436], with 24 nM; and `CCC(CC)n1c(Cc2cccs2)nc2cc(C(=O)NC(CC3CCC(C)(C)CC3)C(=O)O)ccc21` (single isomer, unassigned) [Example 445], with 8810 nM; and `CCC(CC)n1c(Cc2ccoc2)nc2cc(C(=O)N[C@H](CC(=O)O)CC(C)C)ccc21` [Example 154, (S)-3-{[1-(1-Ethyl-propyl)-2-furan-3-ylmethyl-1H-benzoimidazole-5-carbonyl]-amino}-5-methyl-hexanoic acid], with 270 nM. Then `CC[C@H](C)[C@@H](CC(=O)O)NC(=O)c1ccc2c(c1)nc(Cc1cccs1)n2[C@@H]1CCCC[C@H]1C` [Example 53, (3R,4S)-4-Methyl-3-{[1-((1R,2R)-2-methyl-cyclohexyl)-2-thiophen-2-ylmethyl-1H-benzoimidazole-5-carbonyl]-amino}-hexanoic acid], with 48 nM; and `C[C@@H]1CCCC[C@H]1n1c(Cc2cccs2)nc2cc(C(=O)NC(CC3CCC(C)(C)CC3)C(=O)O)ccc21` (stereo partly drawn) [Example 33, 3-(4,4-Dimethyl-cyclohexyl)-2-{[1-((1R,2R)-2-methyl-cyclohexyl)-2-thiophen-2-ylmethyl-1H-benzoimidazole-5-carbonyl]-amino}-propionic acid], with 3210 nM.

For the compound `CCC(CC)n1c(Cc2cccs2)nc2cc(C(=O)N[C@@H](CC(C)C)C(=O)NCCC3CCOCC3)ccc21` [Example 382, 1-(1-Ethyl-propyl)-2-thiophen-2-ylmethyl-1H-benzoimidazole-5-carboxylic acid {(S)-3-methyl-1-[2-(tetrahydro-pyran-4-yl)-ethylcarbamoyl]-butyl}-amide], the EC50 was determined as 3560 nM. Then `CCCC[C@H](CO)NC(=O)c1ccc2c(c1)nc(Cc1cccs1)n2C(CC)CC` [Example 198, 1-(1-Ethyl-propyl)-2-thiophen-2-ylmethyl-1H-benzoimidazole-5-carboxylic acid ((R)-1-hydroxymethyl-pentyl)-amide], with 8880 nM. For `CCOCCNC(=O)[C@H](CC(C)C)NC(=O)c1ccc2c(c1)nc(Cc1cccs1)n2C(CC)CC` [Example 383, 1-(1-Ethyl-propyl)-2-thiophen-2-ylmethyl-1H-benzoimidazole-5-carboxylic acid [(S)-1-(2-ethoxy-ethylcarbamoyl)-3-methyl-butyl]-amide], the EC50 was found to be 2120 nM.

In the case of `CCC(CC)n1c(Cc2ccco2)nc2cc(C(=O)N[C@H](CC(=O)O)CC(C)C)ccc21` [Example 96, (S)-3-{[1-(1-Ethyl-propyl)-2-furan-2-ylmethyl-1H-benzoimidazole-5-carbonyl]-amino}-5-methyl-hexanoic acid], the EC50 was under 41 nM.

Regarding `Cc1ccc(Cc2nc3cc(C(=O)N[C@@H](CC(C)C)C(=O)O)ccc3n2C2CCCCC2C)s1` (stereo partly drawn) [Example 144, (S)-4-Methyl-2-{[1-(2-methyl-cyclohexyl)-2-(5-methyl-thiophen-2-ylmethyl)-1H-benzoimidazole-5-carbonyl]-amino}-pentanoic acid], the EC50 was 23000 nM. The figure for `CCC(CC)n1c(Cc2cccs2)nc2cc(C(=O)N[C@@H](CC(C)C)C(=O)NCc3ccc(N(C)C)cc3)ccc21` [Example 266, 1-(1-Ethyl-propyl)-2-thiophen-2-ylmethyl-1H-benzoimidazole-5-carboxylic acid [(S)-1-(4-dimethylamino-benzylcarbamoyl)-3-methyl-butyl]-amide] is 2720 nM.

The values above are taken from patent US9156796B2, “Benzoimidazole-carboxylic acid amide derivatives as APJ receptor modulators” (SANOFI, priority 2013, dated 2015).
